Experiments:
[1] = Inhibition of SAG-induced hedgehog pathway in mouse SHH-LIGHT2 cells; type: cell-based
Sonic hedgehog protein [2] = molecular target: T1, Sonic hedgehog protein (Mus musculus, UniProt Q62226); experiment: Inhibition of SHh in mouse NIH3T3 cells assessed as Gli activation; type: cell-based
Sonic hedgehog protein [3] = molecular target: T1, Sonic hedgehog protein; experiment: Inhibition of SHh palmitoylation in mouse NIH3T3 cells; type: cell-based
Sonic hedgehog protein [4] = molecular target: T1, Sonic hedgehog protein; experiment: Inhibition of SHh in mouse LIGHT2 cells; type: cell-based
[5] = Inhibition of hedgehog pathway in mouse C3H10T1/2 cells assessed as alkaline phosphatase enzyme activity; type: cell-based; settings: c3h 10t1/2
[6] = Cytotoxicity against human SK-N-BE(2) cells after 72 hrs by fluorometric microculture cytotoxicity assay; type: functional; settings: SKNBE2, 72 h, pooled result: one value given for 7 cell lines, strains, targets or settings
[7] = Inhibition of SHH-mediated mouse C3H10T1/2 cell differentiation to osteoblasts; settings: c3h 10t1/2
[8] = Decrease of cell density in human CCC cells at 50 nM up to 24 hrs; type: functional; parameters: scale not given: the % may be the effect or the level left
[9] = Antiproliferative activity against mouse medulloblastoma cells expressing wild type SMO; type: functional; settings: Medulloblastoma cell
Protein smoothened = Protein smoothened (Homo sapiens, UniProt Q99835, D473H); experiment: Inhibition of Smo D473H mutant (unknown origin) expressed in mouse C3H10T1/2 cells by luciferase assay; type: cell-based, C3H 10T1/2
Chain of Protein smoothened (Q99835 28-787 D473H limits assumed): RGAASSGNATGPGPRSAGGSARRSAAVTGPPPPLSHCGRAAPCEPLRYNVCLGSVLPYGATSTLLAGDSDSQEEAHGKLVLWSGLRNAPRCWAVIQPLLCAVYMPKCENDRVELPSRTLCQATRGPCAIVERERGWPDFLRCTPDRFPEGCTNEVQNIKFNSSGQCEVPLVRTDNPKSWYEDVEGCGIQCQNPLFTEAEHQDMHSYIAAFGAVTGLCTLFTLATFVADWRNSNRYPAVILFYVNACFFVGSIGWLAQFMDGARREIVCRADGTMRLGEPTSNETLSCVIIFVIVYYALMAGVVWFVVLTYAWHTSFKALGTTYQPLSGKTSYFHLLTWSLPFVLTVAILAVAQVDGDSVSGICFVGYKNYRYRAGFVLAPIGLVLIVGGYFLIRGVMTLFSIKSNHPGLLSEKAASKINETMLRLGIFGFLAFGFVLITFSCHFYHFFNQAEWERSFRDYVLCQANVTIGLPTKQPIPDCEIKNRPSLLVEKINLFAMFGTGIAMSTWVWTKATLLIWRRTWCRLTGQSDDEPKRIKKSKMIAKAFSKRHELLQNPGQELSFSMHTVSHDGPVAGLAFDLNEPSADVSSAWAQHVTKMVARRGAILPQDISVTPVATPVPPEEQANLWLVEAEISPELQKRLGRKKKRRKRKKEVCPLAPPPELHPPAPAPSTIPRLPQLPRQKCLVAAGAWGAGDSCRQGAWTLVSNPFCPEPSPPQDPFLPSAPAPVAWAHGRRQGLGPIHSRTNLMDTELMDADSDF

T1 sequence (Q62226 25-198 limits assumed): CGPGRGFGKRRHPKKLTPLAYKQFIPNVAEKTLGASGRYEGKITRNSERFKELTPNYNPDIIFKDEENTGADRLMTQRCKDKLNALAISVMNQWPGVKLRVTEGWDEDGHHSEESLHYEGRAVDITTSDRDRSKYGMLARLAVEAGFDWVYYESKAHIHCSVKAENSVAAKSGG

## COCCOC(=O)C1=C(C)NC2=C(C(=O)CC(c3ccccc3OC)C2)C1c1cccc(O)c1 (centres undefined)
[1]
  IC50: < 10000 nM

## OCCNc1nc(N2CCN(c3ccccc3)CC2)nc2ccccc12
[1]
  IC50: < 10000 nM

## CCC(C)CNCC(=O)N1CCc2sccc2C1COc1cccc(C)c1 (centres undefined)
Sonic hedgehog protein [2]
  IC50: 10000 nM
Sonic hedgehog protein [3]
  IC50: 10000 nM

## O=C(NN1CCN(c2nc(-c3cnc4ccccc4n3)no2)CC1)C1CCCCC1
Sonic hedgehog protein [4]
  IC50: 5 nM

## O=C(NN1CCN(c2nc(-c3ccc4ccccc4n3)no2)CC1)C1CCC(F)(F)CC1
Sonic hedgehog protein [4]
  IC50: 25 nM

## Clc1ccc(N2CCC(N3CCCC3)CC2)cc1-c1nc2ccccc2[nH]1
[5]
  IC50: 23 nM

## COc1ccc(OC)c2c1cc1n2CC(C)(C(=O)NC2CCCCCCC2)N(CCN(C)C)C1=O (centres undefined)
[1]
  IC50: < 10000 nM

## N#C/C(C(=O)c1ccc(Cl)cc1Cl)=C1\NC(=O)c2ccccc2N1
[1]
  IC50: < 10000 nM

## CN(C)c1ccccc1CN1CCCN(Cc2ccccc2N(C)C)C1c1ccncc1
[6]
  GI50: 5820 nM

## CC1=C2C[C@H]3[C@@H](CCC4=CC(=O)CC[C@@]43C)[C@@H]2CC[C@@]2(C1)O[C@@H]1C[C@H](C)CN[C@H]1[C@H]2C
[7]
  EC50: 200 nM

## C=C1CC[C@H](O)C/C1=C/C=C1\CCC[C@]2(C)[C@@H]([C@H](C)CCCC(C)C)CC[C@@H]12 [CHOLECALCIFEROL]
[8]
  Activity: <=90%

## CCC(C)n1ncn(-c2ccc(N3CCN(c4ccc(OCC5COC(Cn6cncn6)(c6ccc(Cl)cc6Cl)O5)cc4)CC3)cc2)c1=O (centres undefined) [ITRACONAZOLE]
[9]
  IC50: 55 nM

## Cc1c(Cc2ccccc2)nnc(N2CCN(c3cnc(C(C)(C)O)cn3)[C@H](C)C2)c1C [LEQ506]
Protein smoothened
  IC50: < 100 nM

Reference: ChEMBL document CHEMBL3132831, “Hedgehog signalling pathway inhibitors as cancer suppressing agents” (Medchemcomm, 2014)
